Counter-ions that a name gives are not always drawn.
Assay: collision cross section in nitrogen (drift tube, single-field); higher = larger gas-phase ion size
[1] = ion type: [M+Na], ion source: ESI, ion mode: Positive
[2] = ion type: [M-H], ion source: ESI, ion mode: Negative
[3] = ion type: [M+H], ion source: ESI, ion mode: Positive
[4] = ion type: [M+H], ion source: APCI, ion mode: Positive
[5] = ion type: [M+], ion source: APCI, ion mode: Positive
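Further: chemical standards at 10 µM analysed by drift tube IMS-QTOF MS in about 3.95 torr nitrogen, mean of duplicate injections differing ≤1%, mass error below 10 ppm.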

Structure (SMILES): CCCCCC(=O)O[C@]1(C(C)=O)CC[C@H]2[C@@H]3CCC4=CC(=O)CC[C@]4(C)[C@H]3CC[C@@]21C [17-((1-Oxohexyl)oxy)pregn-4-ene-3,20-dione]
- collision cross section in nitrogen [1]: 225.6 Å²
- collision cross section in nitrogen [2]: 212.9 Å²

Structure (SMILES): Nc1nc2[nH]cnc2c(=O)[nH]1 [Guanine]
- collision cross section in nitrogen [3]: 130.3 Å²

Structure (SMILES): Oc1ccccc1-c1ccccc1 [2-Phenylphenol]
- collision cross section in nitrogen [2]: 136.4 Å²

Structure (SMILES): O=C(Oc1ccccc1)c1ccccc1O [Phenyl salicylate]
- collision cross section in nitrogen [2]: 145.7 Å²

Structure (SMILES): OC[C@@H](O)[C@@H](O[C@@H]1O[C@H](CO)[C@H](O)[C@H](O)[C@H]1O)[C@H](O)[C@@H](O)CO [D-Lactitol monohydrate]
- collision cross section in nitrogen [1]: 175.3 Å²
- collision cross section in nitrogen [2]: 171.4 Å²

Structure (SMILES): C=C(C)C(=O)NCCC[N+](C)(C)C
- collision cross section in nitrogen (ion source: ESI, ion mode: Positive, ion type: [M]+ (permanent cation)): 143.3 Å²

Structure (SMILES): Cn1cnc([N+](=O)[O-])c1Sc1ncnc2nc[nH]c12 [Azathioprine]
- collision cross section in nitrogen [4]: 158.6 Å²
- collision cross section in nitrogen [1]: 172.4 Å²
- collision cross section in nitrogen [2]: 155.5 Å²

Structure (SMILES): Cc1ccc2nc(-c3ccc(N)cc3)sc2c1 [Dehydrothio-4-toluidine]
- collision cross section in nitrogen [4]: 153.9 Å²
- collision cross section in nitrogen [3]: 153.9 Å²
- collision cross section in nitrogen [5]: 153.5 Å²
- collision cross section in nitrogen [2]: 155.8 Å²

Structure (SMILES): O=C1NC(=O)C2CC=CCC12 (stereo unspecified) [1,2,3,6-Tetrahydrophthalimide]
- collision cross section in nitrogen [2]: 132.6 Å²

Structure (SMILES): N#C/N=C1\SCCN1Cc1ccc(Cl)nc1 [Thiacloprid]
- collision cross section in nitrogen [3]: 159.6 Å²
- collision cross section in nitrogen [1]: 174.2 Å²
- collision cross section in nitrogen [2]: 154.5 Å²

Structure (SMILES): C=C(C)CS(=O)(=O)O [Sodium 2-methylprop-2-ene-1-sulfonate]
- collision cross section in nitrogen [2]: 124.2 Å²

Structure (SMILES): Cc1cc(Cl)ccc1OCC(=O)O [2-(4-Chloro-2-methylphenoxy)acetic acid]
- collision cross section in nitrogen [2]: 146.1 Å²

Structure (SMILES): O=S1(=O)OC(c2ccc(O)cc2)(c2ccc(O)cc2)c2ccccc21 [Phenol red]
- collision cross section in nitrogen [2]: 182 Å²

Structure (SMILES): OCCC1CCCCN1 (stereo unspecified) [2-Piperidineethanol]
- collision cross section in nitrogen [4]: 125.7 Å²
- collision cross section in nitrogen [3]: 126.6 Å²

Structure (SMILES): CC(CCC(=O)O)(c1ccc(O)cc1)c1ccc(O)cc1 [4,4-Bis(4-hydroxyphenyl)valeric acid]
- collision cross section in nitrogen [2]: 177.5 Å²

Structure (SMILES): C=C(c1ccc(C(=O)O)cc1)c1cc2c(cc1C)C(C)(C)CCC2(C)C [Bexarotene]
- collision cross section in nitrogen [2]: 208.7 Å²

Structure (SMILES): O=C(/C=C/C=C/c1ccc2c(c1)OCO2)N1CCCCC1 [Piperine]
- collision cross section in nitrogen [4]: 176 Å²
- collision cross section in nitrogen [3]: 175.7 Å²
- collision cross section in nitrogen [1]: 177.8 Å²

Structure (SMILES): CSc1nc(N=[N+]=[N-])nc(NC(C)C)n1 [Aziprotryne]
- collision cross section in nitrogen [4]: 149.1 Å²
- collision cross section in nitrogen [3]: 148.9 Å²

Structure (SMILES): CC/C(=C(/CC)c1ccc(O)cc1)c1ccc(O)cc1 [Diethylstilbestrol]
- collision cross section in nitrogen [2]: 176.2 Å²

Structure (SMILES): CCCCC(CC)COC(=O)c1ccccc1C(=O)O (stereo unspecified) [Mono(2-ethylhexyl) phthalate]
- collision cross section in nitrogen [1]: 182.1 Å²
- collision cross section in nitrogen [2]: 169.2 Å²

Structure (SMILES): N#Cc1ccccc1N [2-Aminobenzonitrile]
- collision cross section in nitrogen [2]: 118 Å²

Structure (SMILES): CCCCCCCCCCOC(C)=O [Decyl acetate]
- collision cross section in nitrogen [2]: 155 Å²

Structure (SMILES): C=CC(=O)OCCOCCOCC [2-(2-Ethoxyethoxy)ethyl acrylate]
- collision cross section in nitrogen [1]: 142.6 Å²

Structure (SMILES): Nc1cccc(N)n1 [2,6-Diaminopyridine]
- collision cross section in nitrogen [4]: 118.9 Å²
- collision cross section in nitrogen [3]: 119.8 Å²

Structure (SMILES): CCCCCCCCCCCCCOS(=O)(=O)O [Sodium tridecyl sulfate]
- collision cross section in nitrogen [2]: 170 Å²

Structure (SMILES): O=C1C[C@@H]2OCC=C3CN4CC[C@]56c7ccccc7N1[C@H]5[C@H]2[C@H]3C[C@H]46 [Strychnine hemisulphate salt]
- collision cross section in nitrogen [4]: 172.6 Å²
- collision cross section in nitrogen [3]: 175.8 Å²

Structure (SMILES): O=C(OCc1ccccc1)c1ccccc1O [Benzyl salicylate]
- collision cross section in nitrogen [2]: 153.3 Å²

Structure (SMILES): O=C1OC(=O)c2c(Cl)c(Cl)c(Cl)c(Cl)c21 [Tetrachlorophthalic anhydride]
- collision cross section in nitrogen [2]: 158.1 Å²

Structure (SMILES): CC(C)(COC(=O)c1ccccc1)COC(=O)c1ccccc1 [Neopentyl glycol dibenzoate]
- collision cross section in nitrogen [1]: 180.7 Å²

Structure (SMILES): N#Cc1cc([N+](=O)[O-])ccc1N [2-Amino-5-nitrobenzonitrile]
- collision cross section in nitrogen [2]: 125.1 Å²

Structure (SMILES): CCNP(=S)(OC)O/C(C)=C/C(=O)OC(C)C (stereo unspecified) [Propetamphos]
- collision cross section in nitrogen [1]: 170.5 Å²
- collision cross section in nitrogen [2]: 168.1 Å²

Structure (SMILES): Cc1cc(=O)oc2cc(O)ccc12 [4-Methylumbelliferone]
- collision cross section in nitrogen [3]: 132.6 Å²
- collision cross section in nitrogen [2]: 133.3 Å²

Structure (SMILES): CCC(C)(CC)C(=O)O [2-Ethyl-2-methylbutyric acid]
- collision cross section in nitrogen [2]: 130.5 Å²

Structure (SMILES): COCCOCCOCCOCCOC [2,5,8,11,14-Pentaoxapentadecane]
- collision cross section in nitrogen [1]: 147.3 Å²

Structure (SMILES): CCCCCCCCC=CCCCCCCCC(=O)OCCO [Poly(oxyethylene) monoleate]
- collision cross section in nitrogen [2]: 186.1 Å²

Structure (SMILES): c1ccc(-c2ccccn2)nc1 [2,2'-Bipyridine]
- collision cross section in nitrogen [4]: 126.4 Å²
- collision cross section in nitrogen [3]: 127 Å²

Structure (SMILES): O=C1c2ccccc2C(=O)C1C(=O)C(c1ccccc1)c1ccc(Cl)cc1 (stereo unspecified) [Chlorophacinone]
- collision cross section in nitrogen [2]: 193.2 Å²

Structure (SMILES): COc1ccnc(CS(=O)c2nc3cc(OC(F)F)ccc3[nH]2)c1OC (stereo unspecified) [Pantoprazole sodium]
- collision cross section in nitrogen [4]: 185.5 Å²
- collision cross section in nitrogen [3]: 185.2 Å²
- collision cross section in nitrogen [1]: 185.5 Å²
- collision cross section in nitrogen [2]: 187 Å²

Structure (SMILES): CCCCCCCCc1ccc(O)cc1 [4-Octylphenol]
- collision cross section in nitrogen [2]: 159.9 Å²

Structure (SMILES): Oc1ccc(Cl)cc1 [4-Chlorophenol]
- collision cross section in nitrogen [2]: 120.2 Å²

Structure (SMILES): C=C(C)[C@H]1Cc2c(ccc3c2O[C@@H]2COc4cc(OC)c(OC)cc4[C@@H]2C3=O)O1 [Rotenone]
- collision cross section in nitrogen [3]: 194.8 Å²
- collision cross section in nitrogen [1]: 207.3 Å²
- collision cross section in nitrogen [2]: 199 Å²

Structure (SMILES): CCN(CC)C(=O)c1cccc(C)c1 [DEET]
- collision cross section in nitrogen [4]: 143.5 Å²
- collision cross section in nitrogen [3]: 143.6 Å²
- collision cross section in nitrogen [1]: 160.2 Å²

Structure (SMILES): CCN(CC)CCNc1ccc(CNC=O)c2sc3ccc(OC)cc3c(=O)c12
- collision cross section in nitrogen [4]: 196.9 Å²
- collision cross section in nitrogen [3]: 197 Å²
- collision cross section in nitrogen [1]: 198.8 Å²

Structure (SMILES): N=C1NC(=N)c2cc3ccccc3cc21 [1,3-Diiminobenz(f)isoindoline]
- collision cross section in nitrogen [3]: 140.1 Å²

Structure (SMILES): c1ccc2c(c1)c1cccc3ccc4cccc2c4c31 [Benzo[e]pyrene]
- collision cross section in nitrogen [5]: 149.7 Å²

Structure (SMILES): c1ccc2ncccc2c1 [Quinoline]
- collision cross section in nitrogen [4]: 120.8 Å²

Structure (SMILES): O=c1cc(-c2ccccc2)oc2cc(O)cc(O)c12 [Chrysin]
- collision cross section in nitrogen [4]: 155.4 Å²
- collision cross section in nitrogen [3]: 154.8 Å²
- collision cross section in nitrogen [2]: 157.7 Å²

Structure (SMILES): CCc1nn(C)c(C(=O)NCc2ccc(C(C)(C)C)cc2)c1Cl [Tebufenpyrad]
- collision cross section in nitrogen [4]: 193.9 Å²
- collision cross section in nitrogen [3]: 193 Å²
- collision cross section in nitrogen [1]: 193.2 Å²
- collision cross section in nitrogen [2]: 194 Å²

Structure (SMILES): Cc1ccccc1N=Nc1ccc(NC(=O)c2ccnn2C)c(C)c1
- collision cross section in nitrogen [4]: 189.6 Å²
- collision cross section in nitrogen [3]: 189.1 Å²
- collision cross section in nitrogen [1]: 200.2 Å²
- collision cross section in nitrogen [2]: 190.8 Å²

Structure (SMILES): CC(C)(c1ccccc1)c1ccc(Nc2ccc(C(C)(C)c3ccccc3)cc2)cc1
- collision cross section in nitrogen [4]: 220.2 Å²
- collision cross section in nitrogen [3]: 220.3 Å²
- collision cross section in nitrogen [5]: 218.2 Å²
- collision cross section in nitrogen [2]: 222.7 Å²

Structure (SMILES): CNC(=O)CSP(=O)(OC)OC [Omethoate]
- collision cross section in nitrogen [4]: 137.1 Å²
- collision cross section in nitrogen [1]: 145.9 Å²

Structure (SMILES): CC(C)N(C(=O)COc1nnc(C(F)(F)F)s1)c1ccc(F)cc1 [Flufenacet]
- collision cross section in nitrogen [1]: 187.5 Å²

Structure (SMILES): Cc1cccc(OP(=O)(Oc2cccc(C)c2)Oc2cccc(C)c2)c1 [Phosphoric acid, tris(3-methylphenyl) ester]
- collision cross section in nitrogen [4]: 188.7 Å²
- collision cross section in nitrogen [3]: 188.6 Å²
- collision cross section in nitrogen [1]: 198.9 Å²

Structure (SMILES): FC(F)(F)c1ccc(Cl)cc1 [1-Chloro-4-(trifluoromethyl)benzene]
- collision cross section in nitrogen [3]: 142.6 Å²

Structure (SMILES): CN(C)c1ccc(C(=N)c2ccc(N(C)C)cc2)cc1 [Auramine hydrochloride]
- collision cross section in nitrogen [4]: 168.3 Å²
- collision cross section in nitrogen [3]: 169.8 Å²

Structure (SMILES): Cc1ccc(C)c(S(=O)(=O)O)c1 [Sodium 2,5-dimethylbenzenesulfonate]
- collision cross section in nitrogen [2]: 138.5 Å²

Structure (SMILES): O=C(O)c1cccc(C(F)(F)F)c1 [3-(Trifluoromethyl)benzoic acid]
- collision cross section in nitrogen [2]: 132.4 Å²

Structure (SMILES): CC(=O)Nc1nnc(S(N)(=O)=O)s1 [Acetazolamide]
- collision cross section in nitrogen [2]: 137.8 Å²

— the supplement of paper PMC12317010
